Data as given in patent publication US9738684B2, “N-terminally modified linear and branched polyamine conjugated peptidomimetics as antimicrobials agents” (COUNCIL OF SCIENTIFIC & INDUSTRIAL RESEARCH, priority 2015, dated 2017).
≈ marks a conversion by molar mass, not a printed value.

Experiments:
[1] = tested on: Escherichia coli (ATCC 11775); test: MIC, serial broth dilution; format: cell-based; details: Escherichia coli, ATCC11775, 18 h, read-out: MIC E. coli. (ATCC 11775)
Protocol: (§1) The peptidomimetics designed in present invention were evaluated as antibacterial therapeutics against a broad range of bacterial strains by broth microdilution method. The antibacterial activity of the peptidomimetics was reported in terms of the minimum inhibitory concentrations (MIC).
(§2) Following bacterial strains were used in this study: S. aureus (ATCC 29213), methicillin resistant S. aureus (ATCC 33591), Staphylococcus epidermidis (ATCC 12228), methicillin resistant Staphylococcus epidermidis(ATCC 51625), Enterococcus faecalis (ATCC 7080), Escherichia coli (ATCC 11775), and Acinetobacter baumannii (ATCC 19606). Antibacterial activity was evaluated using a modified serial broth dilution method in accordance with Clinical Laboratory Standard Institute guidelines [Methods for dilution antimicrobial susceptibility tests for bacteria that grow aerobically-7th ed. Approved standard M7-A7. Clinical and Laboratory Standards Institute, Wayne, Pa., Biochim. Biophys. Acta 1798:1864-1875, 2010.]. Briefly, the inoculums were prepared from mid-log phase bacterial cultures. Peptidomimetics were incubated with bacterial suspension in Muller Hinton broth media (10^5 CFU/mL) in 96 well microtitre plate. The plates were incubated overnight with agitation (200 rpm) at 37° C. After 18 h, absorbance was measured at 630 nm. Cultures without test peptidomimetics were used as positive control. Un-inoculated Mueller Hinton Broth (MHB) was used as negative control. Tests were carried out in duplicate on at least three different days. […] For comparison standard peptide antibiotics vancomycin (VAN) and polymyxin B (PMB) were also assayed under identical conditions (Table 2). […] Further, antibacterial activity of active peptidomimetics 1c and 1d were also evaluated against MRSA in presence of 25% v/v human serum as well as bovine serum.

S. aureus (ATCC 33591) = test: Resistance development study, serial passage at sub MIC; format: cell-based, Staphylococcus aureus; details: 17 serial passages at sub MIC
Protocol: FIG. 5: Illustration of resistance development study in S. aureus (ATCC 33591) after 17 serial passages with sub MIC of 1c/1d or antibiotic treatment. The fold change in MIC is the ratio of the MIC after 17 passages relative to that MIC observed before first passage.
To determine potential of active peptidomimetics against resistance development, in vitro serial passage method at sub inhibitory concentration was done. Briefly, bacterial suspension (100 μL) from duplicate wells at the concentration of sub-MIC was used to inoculate fresh culture. The culture was grown to obtain approximately 10^5 CFU/mL for the next experiment. These bacterial suspensions were then incubated with desired concentration of antibacterial agents for 18 h to determine new MIC. The same sub culturing protocol was used for next 16 passages and MIC was determined using OD630 nm as described previously in the text [Chem. Biol., 20:1286-1295, 2013.]

[2] = tested on: MRSA (ATCC 33591) biofilm; test: Confocal laser scanning microscopy of biofilm, thickness by z-stacking; format: cell-based, Staphylococcus aureus; details: for confocal observation of mature biofilm: 24 h preformed biofilm
Excerpt: For visualization of biofilm and validation of AB and CV assay we performed confocal microscopy. For this biofilm formation was induced on glass cover slips in a 6-well plate. The biofilm on cover slips were washed twice with sterile NaCl/Pi buffer and stained with a Live/Dead kit reagent (Invitrogen, Molecular Probes, Eugene, Oreg., USA) following the manufacturer's instructions. This stain contains DNA binding dyes SYTO 9 (green fluorescent) and propidium iodide (PI; red fluorescent). When used alone, SYTO 9 stains all bacteria in a population, those with intact as well as damaged membranes. In contrast, PI penetrates only bacteria with damaged membranes, causing a reduction in the SYTO 9 stain (green fluorescence). The biofilms were examined with an Olympus flow view FV1000 (confocal laser scanning microscope, CLSM). The experiment was repeated three times on three different days and representative data is presented here.
We next measured the thickness of biofilm using z-stacking in confocal microscopy. […] At MICb, 1c and 1d prevented formation of biofilm in which very few cells were adhered to substratum with observed average thickness of 3.9±1.1 μm and 3.5±0.6 μm, respectively. Furthermore, at sub-MICb concentration the observed thicknesses were 5.2±0.3 μm and 5.8±0.4 μm (FIG. 7A.b and FIG. 7A.d).

[3] = tested on: MRSA (ATCC 33591) biofilm; test: 24 h preformed mature biofilm (alamar blue, crystal violet); format: cell-based, Staphylococcus aureus; details: Staphylococcus aureus, 24 h, read-out: viable cells in 24 h pre-formed mature biofilm (alamar blue)
Protocol: To evaluate potential of designed active peptidomimetics against MRSA biofilms a methodology as used previously was employed with minor modifications [Antimicrob. Agents Chemother., 57:2726-2737, 2013]. Briefly, freshly inoculated MRSA (ATCC 33591) was grown in biofilm growth media (TSB supplemented with 0.5% w/v NaCl and 0.25% w/v glucose) overnight. Next day, the culture was diluted in fresh biofilm growth media to 10^5 CFU/mL. 200 μl of diluted culture was dispensed in wells of a 96-well polystyrene plate for biofilm formation. […] Biofilm cultures were re-incubated at 37° C. for 24 h. After removal of medium, the biofilms were further washed twice with sterile NaCl/Pi buffer and assessed for metabolic activity (alamar blue assay) and biomass quantification (Crystal violet assay).

MRSA (ATCC 33591) = test: Planktonic MIC in biofilm media (MICb); format: cell-based, Staphylococcus aureus; details: TSB with 0.5% NaCl and 0.25% glucose
[4] = tested on: Gram-negative bacterial strains; test: Antibacterial activity; format: cell-based
Protocol: as §2

Staphylococcus species = test: Antibacterial activity; format: cell-based
Protocol: as §2

[5] = tested on: Staphylococcus epidermidis (ATCC 12228); test: MIC, serial broth dilution; format: cell-based
Protocol: as §1, §2

[6] = tested on: Acinetobacter baumannii (ATCC 19606); test: MIC, serial broth dilution; format: cell-based; details: Acinetobacter baumannii, ATCC19606, 18 h, read-out: MIC A. baumannii (ATCC 19606)
Protocol: as §1, §2

[7] = tested on: methicillin resistant Staphylococcus epidermidis (ATCC 51625); test: MIC, serial broth dilution; format: cell-based; details: Staphylococcus epidermidis, ATCC 51625 / MRSE, 18 h, read-out: MIC MRSE (ATCC 51625)
Protocol: as §1, §2

[8] = tested on: methicillin resistant S. aureus (ATCC 33591); test: MIC, serial broth dilution; format: cell-based, Staphylococcus aureus; details: 18 h
Protocol: as §1, §2

S. aureus (ATCC 29213) = test: MIC, serial broth dilution; format: cell-based, Staphylococcus aureus
Protocol: as §1, §2

[9] = tested on: human red blood cells (hRBC); test: Hemolytic activity; format: cell-based; details: 250 μg/mL, 1 h at 37° C.
Protocol: Hemolytic activity of the peptidomimetics was evaluated on human red blood cells (hRBC) as described previously with minor modifications [FEBS J, 273:4040-4054, 2006; Biochim Biophys Acta., 1798:1864-1875, 2010]. Briefly, 100 μL of fresh hRBC suspension 4% v/v in NaCl/Pi (35 mM phosphate buffer, 150 mM NaCl, pH 7.2) was placed in a 96-well plate. After incubation of the peptidomimetics (100 μL) in the hRBC suspension for 1 h at 37° C., the plates were centrifuged and supernatant (100 μL) was transferred to fresh 96-well plate. Absorbance was read at 540 nm using ELISA plate reader (Molecular Devices). Percent hemolysis was calculated using the following formula: % hemolysis=100[(A−A0)/(At−A0)]
Where, A represents absorbance of sample wells at 540 nm. Also A0 and At represents 0% and 100% hemolysis determined in NaCl/Pi and 1% Triton X-100, respectively (Table 2). […] Peptidomimetics 1e and 1f caused 31% and 30% hemolysis at 250 μg/mL. Peptidomimetics 2d, 2e and 2f caused significant hemolysis with 83%, 96% and 88% damage to hRBCs at […] respectively.

MRSA = test: Membrane depolarization with DiSC3(5) dye; format: cell-based, Staphylococcus aureus; details: up to the highest concentration tested
Protocol: For determination of membrane depolarizing ability of designed peptidomimetics, a membrane potential sensitive dye DiSC3(5) was used as described previously with minor modifications [Org Biomol. Chem. 10: 8326-8335, 2012; J. Am. Chem. Soc., 132: 18417-18428, 2010.]. Briefly, overnight grown MRSA was sub cultured into MHB for 2-3 h at 37° C. to obtain mid-log phase cultures. The cells were centrifuged at 4000 rpm for 10 min at 25° C., washed, and re-suspended into respiration buffer (5 mM HEPES, 20 mM glucose, pH 7.4) to obtain a diluted suspension of OD600˜0.05. Then DiSC3(5) [0.18 μM in DMSO], was added to 500 μL aliquotes of the re-suspended cells and allowed to stabilize for 1 h. Baseline fluorescence was acquired using a Edinburg F900 spectrofluorometer by excitation at 622 nm and emission at 670 nm in a 1 cm path length cuvette. Bandwidth of 5 nm was employed for excitation and emission. Subsequently, increasing concentrations of test peptidomimetics were added to the stabilized cells and the increase of fluorescence on account of the de-quenching of DiSC3(5) dye was measured after every 2 min to obtain the maximal depolarization. Increase in relative fluorescence unit (RFU) was plotted against increasing concentrations of different peptidomimetics or PMB. […] The increase in fluorescence for lipid tagged peptidomimetics was concentration dependent up to 9.9 μg/mL and henceforth, got saturated resulting into plateau like dose response curves. The experiment was repeated twice on two consecutive days and produced similar results.

[10] = tested on: Gram-positive bacterial strains; test: Antibacterial activity; format: cell-based
Protocol: as §2

[11] = tested on: Enterococcus faecalis (ATCC 7080); test: MIC, serial broth dilution; format: cell-based; details: MHB, 18 h, 37° C.
Protocol: as §1, §2

Question: Which MIC [1] does the source give for CN[C@H](CC(C)C)C(=O)N[C@H]1C(=O)N[C@@H](CC(N)=O)C(=O)N[C@H]2C(=O)N[C@H]3C(=O)N[C@H](C(=O)N[C@H](C(=O)O)c4cc(O)cc(O)c4-c4cc3ccc4O)[C@H](O)c3ccc(c(Cl)c3)Oc3cc2cc(c3O[C@@H]2O[C@H](CO)[C@@H](O)[C@H](O)[C@H]2O[C@H]2C[C@](C)(N)[C@H](O)[C@H](C)O2)Oc2ccc(cc2Cl)[C@H]1O [VAN, vancomycin, reference compound] here?
Answer: 0.114 µg/mL (≈ 0.0784 µM)

Question: What about the “increase in MIC after 17 passages” value (S. aureus (ATCC 33591)) of the same molecule?
Answer: 4 fold

Question: And the “confocal observation of mature biofilm” value ([2]; 10×MICb)?
Answer: little effect

Question: And the “confocal observation of mature biofilm” value ([2]; 20×MICb)?
Answer: slight decrease in the height of mature biofilm

Question: What about the “average thickness of biofilm, biofilm formation” value ([2]; MICb, control 14.3±1.4 μm) of the same molecule?
Answer: 11.4±2.9 μm

Question: What about the “thickness of biofilm, biofilm formation” value ([2]; sub-MICb, control 14.3±1.4 μm) of the same molecule?
Answer: unable to reduce biofilm thickness

Question: And the viability at 20 µg/mL [3]?
Answer: 77.7 ± 7%

Question: What about the “MICb, planktonic MIC in biofilm media” value (MRSA (ATCC 33591)) of the same molecule?
Answer: 0.8 µg/mL

Question: And the “growth inhibition of Gram-negative bacterial strains” value [4]?
Answer: ineffective

Question: What about the “activity against Staphylococcus species” value (Staphylococcus species) of the same molecule?
Answer: potent growth inhibition

Question: And the MIC ([5]; Staphylococcus epidermidis, ATCC12228, 18 h, read-out: MIC S. epidermidis (ATCC 12228))?
Answer: 0.0004 µg/mL (≈ 0.000276 µM)

Question: What about the MIC [6] of the same molecule?
Answer: 0.0568 µg/mL (≈ 0.0392 µM)

Question: And the MIC [7]?
Answer: 0.0008 µg/mL (≈ 0.000552 µM)

Question: And the MIC ([8]; Staphylococcus aureus, ATCC 33591 / MRSA, read-out: MIC MRSA (ATCC 33591))?
Answer: 0.0008 µg/mL (≈ 0.000552 µM)

Question: And the MIC (S. aureus (ATCC 29213); Staphylococcus aureus, ATCC29213, 18 h, read-out: MIC S. aureus (ATCC 29213))?
Answer: 0.0004 µg/mL (≈ 0.000276 µM)

Question: Which “% H, percentage hemolysis of human RBCs” value [9] does the source give for NCCCNCCCCNCCCNC(=O)C(Cc1c[nH]c2ccccc12)NC(=O)C(N)Cc1c[nH]c2ccccc12 (stereo not shown) [1a] here?
Answer: 4%

Question: And the “change in relative fluorescence unit (RFU), membrane depolarization” value (MRSA)?
Answer: only minor increase

Question: What about the “activity against Gram-positive bacterial strains” value [10] of the same molecule?
Answer: moderate activity

Question: And the “MIC E. facaelis (ATCC 7080)” value [11]?
Answer: 0.4545 µg/mL (≈ 0.791 µM)

Question: What about the “MIC S. epidermidis (ATCC 12228)” value ([5]; MHB, 18 h, 37° C.) of the same molecule?
Answer: 113.6 µg/mL (≈ 198 µM)

Question: And the “MIC MRSA (ATCC 33591)” value ([8]; MHB, 37° C.)?
Answer: 227.2 µg/mL (≈ 395 µM)

Question: And the “MIC S. aureus (ATCC 29213)” value (S. aureus (ATCC 29213); MHB, 18 h, 37° C.)?
Answer: 0.1136 µg/mL (≈ 0.198 µM)
